Laboratory results published in patent EP1067965B1, “PHARMACEUTICAL COMPOSITION FOR TREATING CEREBRAL APOPLEXY AND CRANIOCEREBRAL TRAUMA” (Bayer HealthCare AG, priority 1997, dated 1999).
pEC50, pIC50: −log10 of the molar value.

Columns and labels:
[1] = tested on: Rattenmodell der permanenten fokalen cerebralen Ischämie (MCA-O); experiment: Neuroprotection in the rat model of permanent focal cerebral ischaemia (MCA-O); assay type: in vivo, Ratte; details: 7 days survival, Placebo 146,69 ± 6,77
From the text: Unter allgemeiner Narkose (Isofluran) wird in der Mitte zwischen Auge und Ohr ein Hautschnitt gelegt und unter Durchtrennung der darunterliegenden Muskelpartien ein Zugang zum Schädel im Bereich des Foramen ovale geschaffen. Etwa 1 mm rostrodorsal dieser Öffnung wird der Schädelkalotte durchgebohrt, die darunterliegenden Hirnhäute eröffnet, und durch Elektrokoagulation die Arteria cerebri media und deren Nebenäste permanent verschlossen. Daraufhin wird die Kaumuskulatur in ihre ursprüngliche Lage gebracht. Die Muskel- und Hautwunde wird chirurgisch verschlossen und versorgt. Nach dem Aufwachen aus der Narkose werden die Tiere in ihren Heimkäfig zurückgesetzt. Im Verlauf der folgenden Stunden entwickelt sich im Versorgungsgebiet der Arteria cerebri media ein Infarkt, dessen Ausdehnung histologisch quantifiziert wird.
Nach 7 Tagen Überlebenszeit werden die Tiere getötet, das Gehirn entnommen und in auf -30°C gekühltem 2-Methylbutan eingefroren. Mit Hilfe eines Kryostatmikrotoms werden 20 µm dicke Schnitte in 500 µm Abstand im Infarktbereich hergestellt. Nach der Cresylechtviolett-Färbung der fixierten Gehirnschnitte ist das Infarktgebiet vom nicht betroffenen Gewebe deutlich zu unterscheiden. […]

[2] = tested on: isolierte Aortaringe des Kaninchens; experiment: Inhibition of KCl-induced contraction of isolated rabbit aortic rings; assay type: cell-based; details: KCl 1 x 10^-2 mol/l; mean ± standard deviation; Nimodipin value under a comparable set-up; read-out: EC50-Wert, Inhibition der KCl-induzierten Kontraktion der Kaninchen-Aortenringe
From the text: Im Allgemeinen heben Kalziumkanalantagonisten die KCl-induzierte Kontraktion isolierter Aortaringe des Kaninchens auf (vgl. Arzneim.-Forsch./Drug Res. 1992, 42, 795-797; J. Pharmacol. Exp.Ther. 1953, 108,129-143.).
Kaninchen beiderlei Geschlechts werden schmerzlos betäubt und entblutet. Der thorakale Teil der Aorta descendens wird ohne Verletzung der Endothelschicht freipräpariert und auf ca. 2 mm breite spiraienförmige Streifensegmente geschnitten und einzeln unter einer Anfangsbelastung von ca. 2 g in 10ml Carbogen-begaste Krebs-Bicarbonat-Pufferlösung (37°C) verbracht.
Kontraktionen werden isometrisch erfaßt und ausgewertet.
Die funktionelle Integrität des Endotheliums wird durch Noradrenalin (1 x 10^-8 mol/l) induzierte Kontraktionen und durch Acetylcholin (1 x 10^-8 - 1 x 10^-5 mol/l) hervorgerufene Relaxation getestet. Nach einer Auswasch- und Ruhephase sowie Erreichen eines stabilen Basalwertes (ca. nach 2 Stunden) wird mit Zugabe von 0,25 ml KCl, bei einer Endkonzenration von 1 x 10^-2 mol/l eine submaximale (60-80%) Kontraktion der Aortastreifen ausgelöst. Die Testsubstanz wird während der Plateauphase der KCl induzierten Kontraktion in die Bäder appliziert (in steigender Dosierungen: 1 x 10^-12 - 1 x 10^-5 mol/l Endkonzentration) und die Wirkung auf den kontrahierten Gefäßstreifen gemessen. […]

[3] = target: T1, 5-HT1A Rezeptor gekoppelte Adenylatcyclase-Aktivität (Rattus norvegicus, UniProt P19327); experiment: Inhibition of forskolin-stimulated adenylate cyclase activity on hippocampal cell membranes; assay type: biochemical; details: Hippocampusmembranen der Ratte; 0,01 mM Forskolin; read-out: IC50-Wert, Inhibition der Forskolin-stimulierten Adenylatcyclase Aktivität
T1 construct: an hippocampalen Zellmembranen der Ratte; from tissue; host or cells: rat hippocampus membranes
T1 sequence (P19327 1-422): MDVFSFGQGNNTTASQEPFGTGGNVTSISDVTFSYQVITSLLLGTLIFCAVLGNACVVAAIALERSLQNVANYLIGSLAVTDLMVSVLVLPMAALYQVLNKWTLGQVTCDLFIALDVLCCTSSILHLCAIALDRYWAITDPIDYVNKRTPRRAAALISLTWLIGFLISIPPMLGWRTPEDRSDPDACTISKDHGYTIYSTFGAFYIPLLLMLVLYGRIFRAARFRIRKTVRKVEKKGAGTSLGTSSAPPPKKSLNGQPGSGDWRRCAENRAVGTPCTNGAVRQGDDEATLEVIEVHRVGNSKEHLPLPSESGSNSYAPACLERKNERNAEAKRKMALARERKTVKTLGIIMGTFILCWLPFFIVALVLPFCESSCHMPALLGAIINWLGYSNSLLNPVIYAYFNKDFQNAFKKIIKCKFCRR
Experimental: 5-HT1A Rezeptor gekoppelte Adenylatcyclase-Aktivität wurde an hippocampalen Zellmembranen der Ratte mit der Methodik von De Vivo und Maayani (J. Pharmacol. Exp. Ther. 1986, 238, 248-253.) gemessen.
Der Hippocampus wurde in 25 Volumen 0,3 M Sucroselösung (ergänzt mit 1mM EGTA, 5 mM EDTA, 5 mM Dithiothreitol und 20 mM Tris-HCl; pH 7,4 bei 25°C) in einem motorgetriebenen Potter-Elvehjem-Homogenisator zerkleinert. Das Homogenat wurde 10 min lang bei 1.000 g abzentrifugiert, danach der Überstand 10 min bei 39.000 g nochmals zentrifugiert. Das Pellet wurde im Homogenisationspuffer aufgenommen. Aliquots mit einem Proteingehalt von 1 mg/ml (gemessen nach Bradford Anal. Biochem. 1976, 72, 248-254.) wurden bei -140°C bis zur weiteren Verarbeitung aufbewahrt. Vor dem Assay wurde das aufgetaute Homogenat mit dem Potter-Elvehjem-Homogenisator nochmals homogenisiert. 50 µl Homogenat (mit ca. 50 µg Proteingehalt) wurden der vorgewärmten (5 min bei 30°C) Inkubationsmischung (100 mM NaCl, 2mM Magnesium Acetate 0,2 mM ATP, 1 mM cAMP, 0,01 mM GTP, 0,01 mM Forskolin, 80 mM Tris-HCl, 5 mM Creatine Phosphate, 0,8 U/µl Creatine Phosphokinase, 0,01 mM IBMX, 1 - 2 µCi α-[^32P]ATP) zupipettiert und so die Inkubation (10 min bei 30°C) gestartet.
Zur Messung der Adenylatcyclase-Aktivität wurde die Menge des gebildeten [^32P]cAMP nach Salomon (Adv. Cyclic Nucleotide Res. 1979, 10, 35-55.) bestimmt.

Row | SMILES | Infarktvolumen im cerebralen Cortex (Mittelwert ± S.E.M; mm^3) ([1]; 0,003 mg/kg/Std i.v. infusion over 4 h directly after occlusion) | pEC50 [2] | Infarktvolumen im cerebralen Cortex (Mittelwert ± S.E.M; mm^3) ([1]; i.v. infusion over 4 h directly after occlusion) | pIC50 [3]
1 | COCCOC(=O)C1=C(C)NC(C)=C(C(=O)OC(C)C)C1c1cccc([N+](=O)[O-])c1 (racemic) [Nimodipin, (RS)-1,4-Dihydro-2,6-dimethyl-4-(3-nitrophenyl)-3,5-pyridindicarbonsäure-isopropylester-2-methoxyethylester] | 120,87 ± 8,79 mm^3 | 8.37 to 8.54 | – | –
2 | COC(=O)C1=C(C)NC(C)=C(C(=O)OC)C1c1ccccc1[N+](=O)[O-] [Nifedipin] | – | 8.45 | – | –
3 | O=C1c2ccccc2S(=O)(=O)N1CCCCNCC1CCc2ccccc2O1 (single isomer, unassigned) [5-HT1A-Agonist*] | – | – | 104,79 ± 7,63 mm^3 | 8.80
